The values below come from PubChem BioAssay (NCI).

SMILES strings stand for the structures.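 A five-concentration, 48-hour dose response in 96-well plates underlies each endpoint, interpolated linearly between surrounding concentrations. TGI denotes the concentration required for complete inhibition of growth.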

Holding throughout (assay): growth of human tumour cells (NCI), 48 h
The test system of assay [1] is ACHN renal.
Assay [2] has as its system EKVX NSCLC.
In assay [3] the test system is HCC-2998 colon.
The test system of assay [4] is HCT-15 colon.
Assay [5] deals with HL-60(TB) leukemia.
The subject of assay [6] is HOP-62 NSCLC.
For assay [7], the system named is HS 578T breast.
The test system of assay [8] is K-562 leukemia.
The test system of assay [9] is LOX IMVI melanoma.
The subject of assay [10] is M14 melanoma.
The subject of assay [11] is MCF7 breast.
For assay [12], the system named is MDA-MB-231 breast.
Assay [13] concerns MDA-MB-435.
The test system of assay [14] is NCI/ADR-RES ovarian.
Assay [15] deals with OVCAR-8 ovarian.
Assay [16] deals with SF-295 CNS.
For assay [17], the system named is SK-MEL-5 melanoma.
Assay [18] deals with SK-OV-3 ovarian.
The test system of assay [19] is T-47D breast.
The test system of assay [20] is UACC-62 melanoma.

In the case of `C1C2CC3CC1CC(Nc1nc(NC45CC6CC(CC(C6)C4)C5)nc(NC45CC6CC(CC(C6)C4)C5)n1)(C2)C3`, the TGI in assay [1] is over 100 µM; in [2] it was over 77.5 µM; in [3], over 100 µM; in assay [4], over 100 µM; in assay [5], over 100 µM; in assay [6], over 100 µM. The TGI in [7] was over 100 µM; in assay [8], over 100 µM; in assay [9], over 52.1 µM; in [10] it was over 100 µM; in assay [11], over 100 µM; in assay [12], over 100 µM. Also, the TGI is over 100 µM in assay [13]; over 100 µM in assay [14]; over 65.5 µM in assay [15]; over 100 µM in assay [16]; over 42.8 µM in assay [17]; over 100 µM in assay [18]. Also, the TGI in assay [19] and in [20] was over 100 µM each time.
As for `Nc1ncnc2c1ccn2C/C=C\CO`, the TGI in assay [1], in assay [2], in assay [3], in assay [4], in assay [5] and in [6] was over 100 µM throughout. Further, the TGI in [7], in assay [8], in [9], in [10], in assay [11] and in [12] was over 100 µM throughout. Also, the TGI in [13], in assay [14], in assay [15], in assay [16], in assay [17] and in assay [18] was over 100 µM each time. The TGI in assay [19] and in assay [20] was over 100 µM in each case.
For `CN1CCN(C(=O)CCNC(=O)Cc2ccc(C(=O)c3ccccc3)cc2)CC1`, the TGI in assay [1], in assay [2], in assay [3], in assay [4], in assay [5] and in assay [6] was over 100 µM each time. Moreover, the TGI in assay [7], in assay [8], in assay [9], in assay [10], in assay [11] and in assay [12] was over 100 µM each time. Besides, the TGI in [13] is 56 µM; in assay [14], over 100 µM; in assay [15], over 100 µM; in [16], over 100 µM; in assay [17], over 100 µM; in [18], over 100 µM. For the same compound, the TGI in [19] and in assay [20] was over 100 µM in each case.
As to `COC(=O)CC(C#N)(OP1(=O)OC(c2ccccc2)C(C)N1C)c1ccccc1` (stereo not drawn), the TGI is 59.8 µM in assay [1]; 60.3 µM in assay [2]; 31.6 µM in [3]; over 100 µM in [4]; 58 µM in [5]; over 100 µM in [6]. Also, the TGI in assay [7] was over 100 µM; in assay [8], 78.7 µM; in assay [9], 53.4 µM; in [10], over 100 µM; in assay [11] it was over 100 µM; in assay [12], over 100 µM. The TGI in [13] is 53.7 µM; in assay [14], over 100 µM; in assay [15] it was 67.1 µM; in assay [16], over 100 µM; in assay [17], over 100 µM; in [18] it was over 100 µM. The TGI worked out at 96.7 µM in [19] and 56.9 µM in assay [20].
`CCCC(=O)n1[nH]c(=O)n(-c2ccc(Cl)cc2)c1=O`: the TGI in assay [1], in assay [2], in [3], in [4], in assay [5] and in assay [6] was over 100 µM throughout. For the same compound, the TGI in [7], in assay [8], in assay [9], in assay [10], in assay [11] and in assay [12] was over 100 µM each time. Also, the TGI in assay [13], in [14], in assay [15], in assay [16], in assay [17] and in assay [18] was over 100 µM in each case. For the same compound, the TGI in assay [19] and in assay [20] was over 100 µM in each case.
As to `CCCC[C@@H]1CCN2C[C@@H](O)[C@@H](O)[C@@H]2[C@H]1O`, the TGI in assay [1], in assay [2], in assay [3], in assay [4], in [5] and in assay [7] was over 100 µM in each case. The TGI in [8], in assay [9], in assay [10], in [11], in assay [12] and in [13] was over 100 µM throughout. The TGI in assay [14], in assay [15], in assay [16], in assay [17], in assay [18] and in assay [19] was over 100 µM in each case. The TGI in assay [20] was over 100 µM.
Regarding `O=C1NC(NNc2ccccc2)=N/C1=C\c1ccccc1O`, the TGI in [1], in [2], in assay [3], in assay [4], in [5] and in assay [6] was over 100 µM in each case. Besides, the TGI in assay [7], in assay [8], in assay [9], in assay [10], in assay [11] and in [12] was over 100 µM in each case. Further, the TGI in [13], in assay [14], in assay [15], in [16], in assay [18] and in assay [19] was over 100 µM in each case. In addition, the TGI in assay [20] was over 100 µM.
